*1 amine or outer side, *2 acyl side, *3 side chain or, on linkers, in order; H or OH if unused. Where a SMILES comes first, the peptide text is derived from it. Bridges are numbered along the chain shown (N, C = ends). Roman numbers before positions name the chains, in order. [ ]: non-standard residue; d: D form. Diglycolyl = O=C(COCC(=O)[*:2])[*:1]; NMeR = CN[C@@H](CCCNC(=N)N)C(=O)O; β3hE = N[C@@H](CCC(=O)O)CC(=O)O; X1 = O=C(c1ccccc1C[*:2])[*:1]; Pen = CC(C)(S)[C@H](N)C(=O)O
Key:
[1] = Simulated Gastric Fluid (SGF) Stability Assay; assay type: in vitro ADME; settings: pH 2, 37° C.; for half-life: simulated gi fluid, porcine pepsin
Procedure: Simulated Gastric Fluid (SGF) Stability Assays
Studies were carried out in simulated gastric fluid (SGF) to evaluate intestinal stability of the peptide molecules of the instant invention. SGF was prepared by adding 20 mg NaCl, 32 mg porcine pepsin (MP Biochemicals, catalog 02102599), and 70 μl HCl to 10 ml water (final pH=2). Aliquots of SGF (0.5 ml each) were pre-warmed at 37° C. To start the reaction, 1 μl of peptide stock solution (10 mM in DMSO) was added to 0.5 ml SGF and thoroughly mixed such that the final peptide concentration was 20 μM. The reactions were incubated at 37° C. with gentle shaking. At each time point (0, 15, 30, 60 min) 50 μl aliquots were removed and added to 200 μl acetonitrile containing 0.1% formic acid to quench the reaction. Samples are stored at 4° C. until the end of the experiment and centrifuged at 10,000 rpm for 5 minutes. Aliquots of the supernatant were removed, diluted 1:1 into distilled water containing internal standard, and analyzed by LCMS/MS. Percent remaining at each timepoint was calculated based on the peak area response ratio of test to compound to internal standard. Time 0 was set to 100%, and all later timepoints were calculated relative to time 0. Half-lives were calculated by fitting to a first-order exponential decay equation using GraphPad.

[2] = Simulated Intestinal Fluid (SIF) Stability Assay; assay type: in vitro ADME; settings: 37° C.; for half-life: simulated gi fluid, porcine pancreatin
Method in brief: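 Peptide at 22 μM final was incubated at 37° C in blank FaSSIF pH 6.5 with 1% porcine pancreatin. Timed samples were quenched in acetonitrile/methanol/formic acid with internal standard and analysed by LC-MS/MS. Half-lives came from first-order exponential fits of percent remaining.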

Molecule `CC(C)C[C@@H]1NC(=O)[C@H]([C@@H](C)O)NC(=O)[C@H](CC(=O)O)NC(=O)[C@H](CO)NC(=O)[C@H](CCCNC(=N)N)N(C)C(=O)c2ccccc2CSC(C)(C)[C@@H](C(=O)N[C@@H](Cc2c[nH]c3ccccc23)C(=O)N[C@H](CCC(=O)O)C(N)=O)NC1=O` [compound 97] (HELM PEPTIDE1{[meR].S.D.T.L.[Pen].W.[dE].[am]}|CHEM1{[O=C(c1ccccc1C[*:2])[*:1]]}$PEPTIDE1,CHEM1,1:R1-1:R1|PEPTIDE1,CHEM1,6:R3-1:R2$$$V2.0) has a half-life ([1]; monomers, Table 6) greater than 3 h and a half-life ([2]; monomers, Table 6) greater than 3 h.
`CC(C)C[C@@H]1NC(=O)[C@H]([C@@H](C)O)NC(=O)[C@H](CC(=O)O)NC(=O)[C@H](CO)NC(=O)[C@H](CCCNC(=N)N)N(C)C(=O)c2ccccc2CSC(C)(C)[C@@H](C(=O)N[C@@H](Cc2ccc(O)cc2)C(=O)N[C@@H](CCC(=O)O)CC(=O)N[C@H](CCCCNC(=O)COCC(=O)NCCCC[C@@H](NC(=O)C[C@H](CCC(=O)O)NC(=O)[C@H](Cc2ccc(O)cc2)NC(=O)[C@H]2NC(=O)[C@H](CC(C)C)NC(=O)[C@H]([C@@H](C)O)NC(=O)[C@H](CC(=O)O)NC(=O)[C@H](CO)NC(=O)[C@H](CCCNC(=N)N)N(C)C(=O)c3ccccc3CSC2(C)C)C(N)=O)C(N)=O)NC1=O` [compound 165] (I: [NMeR]SDTL[Pen]Y[β3hE][dK]-NH2 / II: [NMeR]SDTL[Pen]Y[β3hE][dK]-NH2; linker I:9-II:9 via Diglycolyl; linker I:N-I:6, II:N-II:6 via X1) showed a half-life at 20 μM ([1]; pig, simulated gastric fluid (SGF) with porcine pepsin, dimers, Table 7) greater than 1 h and a half-life at 22 μM ([2]; pig, simulated intestinal fluid (SIF) with 1% porcine pancreatin, pH 6.5, porcine pancreatin, dimers, Table 7) greater than 3 h.
With `CC(C)C[C@@H]1NC(=O)[C@H]([C@@H](C)O)NC(=O)[C@H](CC(=O)O)NC(=O)[C@H](CO)NC(=O)[C@H](CCCNC(=N)N)N(C)C(=O)c2ccccc2CSC(C)(C)[C@@H](C(=O)N[C@@H](Cc2c[nH]c3ccccc23)C(=O)N[C@H](CCC(=O)O)C(=O)N[C@H](CCCCN)C(N)=O)NC1=O` [compound 150] (HELM PEPTIDE1{[meR].S.D.T.L.[Pen].W.[dE].[dK].[am]}|CHEM1{[O=C(c1ccccc1C[*:2])[*:1]]}$PEPTIDE1,CHEM1,1:R1-1:R1|PEPTIDE1,CHEM1,6:R3-1:R2$$$V2.0) the half-life ([1]; dimers, Table 7) was greater than 3 h and the half-life ([2]; dimers, Table 7) was greater than 3 h.
